Reference: patent publication US11945808B2, “Substituted cyclohexyl compounds as NOP inhibitors” (Dart NeuroScience, LLC, priority 2018, dated 2024)

molecular target: human opioid NOP (Homo sapiens, UniProt P41146); assay: Cell-based NOP cAMP assay (LANCE cAMP, TR-FRET); conditions: antagonism of nociceptin in cAMP assay, cells expressing human NOP, forskolin-stimulated; values given as ranges; read-out: NOP (pIC50) (converted)
Description: Formula (I) compounds were tested for antagonism of the nociceptin receptor (NOP) in a cell-based cAMP assay, using the LANCE cAMP Detection Kit, Perkin Elmer (Waltham, MA). This assay (LANCE cAMP) is a homogeneous, time-resolved fluorescence resonance energy transfer (TR-FRET) immunoassay designed to measure cAMP produced upon modulation of adenylyl cyclase activity by G protein-coupled receptors (GPCRs).
Cells expressing human opioid NOP (ValiScreen cell line, cat #ES-230-C Perkin Elmer (Waltham, MA) were dispensed in simulation buffer (5 mM Hepes, 0.1% BSA, 0.5 mM IBMX in Hanks Buffered Saline Solution) at 2.5 μL cells per well (400 cells/well) into a 1536 white TC-treated assay plate. Compound was then added and plates were incubated for 15 minutes at room temperature. To each well was added 2.5 μL of a solution containing forskolin (3 μM final) and nociceptin peptide ([…] final) diluted in stimulation buffer, and the plates were incubated for 30 minutes at room temperature. To each well was dispensed 5 μL of LANCE Ultra detection (1:300 dilution of anti-cAMP ULight with a 1:100 dilution of Eu-cAMP tracer diluted in cAMP Detection Buffer) reagent, and the plates were incubated for 1 hr at room temperature. The plate was then read on the ViewLux microplate reader (Perkin Elmer, Waltham, MA) using the LANCE 1536 protocol with 60 second exposure times and 50 μs delay. This protocol has an excitation wavelength of 340 nm (DUG11 filter) and emission wavelengths of 615 nm (Eu-Donor) and 665 nm (Alexa 647 cAMP antibody acceptor).
Data was analyzed, normalized, and visualized using ACAS (John McNeil & Co.). Efficacy was calculated using activity of the vehicle (DMSO) as 0% efficacy and the activity of the corresponding reference positive control (SCH 221510, Tocris Bioscience (Pittsburgh, PA), Catalog number 3240) as 100% efficacy. Activity was calculated as the ratio of donor and acceptor emissions. All curve fits and IC50 determinations were performed using a non-linear regression model. The IC50 value was measured as the concentration at which half-maximal response was calculated.

Sequence of human opioid NOP (P41146 whole entry): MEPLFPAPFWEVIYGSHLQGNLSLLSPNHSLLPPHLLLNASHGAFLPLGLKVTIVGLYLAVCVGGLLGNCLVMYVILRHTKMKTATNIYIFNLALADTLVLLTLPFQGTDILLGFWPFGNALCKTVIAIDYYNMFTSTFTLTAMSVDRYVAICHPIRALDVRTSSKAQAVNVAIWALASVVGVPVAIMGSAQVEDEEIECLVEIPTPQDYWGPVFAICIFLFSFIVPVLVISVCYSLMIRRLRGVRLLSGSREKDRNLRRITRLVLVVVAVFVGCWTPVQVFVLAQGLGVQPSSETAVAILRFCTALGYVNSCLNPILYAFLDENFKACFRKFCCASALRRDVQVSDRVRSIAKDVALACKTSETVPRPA

| IC50 [µM] | SMILES |
| --- | --- |
| > 1 | Cc1cccnc1C1CCC(CCNC2CCN(C)CC2)CC1 (stereo not shown) [Example 182, 1-Methyl-N-{2-[4-(3-methylpyridin-2-yl)cyclohexyl]ethyl}piperidin-4-amine] |
| > 1 | Cc1cnccc1C1CCC(CCNC2(C)CCOCC2)CC1 (stereo not shown) [Example 139, 4-Methyl-N-{2-[4-(3-methylpyridin-4-yl)cyclohexyl]ethyl}oxan-4-amine] |
| > 1 | Cc1ccncc1C1CCC(CCNC2(C)CCCC2)CC1 (stereo not shown) [Example 111, 1-Methyl-N-{2-[4-(4-methylpyridin-3-yl)cyclohexyl]ethyl}cyclopentan-1-amine] |
| > 1 | CC(=O)N1CCC(NCCC2CCC(c3ncccc3C)CC2)CC1 (stereo not shown) [Example 174, 1-[4-({2-[4-(3-Methylpyridin-2-yl)cyclohexyl]ethyl}amino)piperidin-1-yl]ethan-1-one] |
| > 1 | CN1CCC(NCCC2CCC(c3cccc(F)c3Cl)CC2)CC1 (stereo not shown) [Example 179, N-{2-[4-(2-Chloro-3-fluorophenyl)cyclohexyl]ethyl}-1-methylpiperidin-4-amine] |
| > 1 | CC(=O)N1CCC(NCCC2CCC(c3cc(F)ccc3Cl)CC2)CC1 (stereo not shown) [Example 178, 1-[4-({2-[4-(2-Chloro-5-fluorophenyl)cyclohexyl]ethyl}amino)piperidin-1-yl]ethan-1-one] |
| > 1 | CC(=O)N1CCC(NCCC2CCC(c3ncccc3Cl)CC2)CC1 (stereo not shown) [Example 173, 1-[4-({2-[4-(3-Chloropyridin-2-yl)cyclohexyl]ethyl}amino)piperidin-1-yl]ethan-1-one] |
| > 1 | Cc1cnccc1C1CCC(CCNC2(C)CCCC2)CC1 (stereo not shown) [Example 121, 1-Methyl-N-{2-[4-(3-methylpyridin-4-yl)cyclohexyl]ethyl}cyclopentan-1-amine] |
| > 1 | Cc1cnccc1C1CCC(CCNC2CCN(C)CC2)CC1 (stereo not shown) [Example 187, 1-Methyl-N-{2-[4-(3-methylpyridin-4-yl)cyclohexyl]ethyl}piperidin-4-amine] |
| > 1 | CC(=O)N1CCC(NCCC2CCC(c3cnccc3C)CC2)CC1 (stereo not shown) [Example 175, 1-[4-({2-[4-(4-Methylpyridin-3-yl)cyclohexyl]ethyl}amino)piperidin-1-yl]ethan-1-one] |
| > 1 | CC(=O)N1CCC(NCCC2CCC(c3cccc(F)c3Cl)CC2)CC1 (stereo not shown) [Example 171, 1-[4-({2-[4-(2-Chloro-3-fluorophenyl)cyclohexyl]ethyl}amino)piperidin-1-yl]ethan-1-one] |
| > 1 | CN1CCC(NCCC2CCC(c3ncccc3Cl)CC2)CC1 (stereo not shown) [Example 181, N-{2-[4-(3-Chloropyridin-2-yl)cyclohexyl]ethyl}-1-methylpiperidin-4-amine] |
| > 1 | Cc1cnccc1C1CCC(CCNC2(C(N)=O)CCCC2)CC1 (stereo not shown) [Example 123, 1-({2-[4-(3-Methylpyridin-4-yl)cyclohexyl]ethyl}amino)cyclopentane-1-carboxamide] |

More lines, now with the values behind:

| SMILES | IC50 [µM] |
| --- | --- |
| Fc1cnc([C@H]2CC[C@H](CCNC3CCOCC3)CC2)nc1 [Example 12, N-(2-((trans)-4-(5-fluoropyrimidin-2-yl)cyclohexyl)ethyl)tetrahydro-2H-pyran-4-amine] | > 1 |
| NC(=O)C1(NCCC2CCC(c3ncccc3Cl)CC2)CCCC1 (stereo not shown) [Example 116, 1-({2-[4-(3-Chloropyridin-2-yl)cyclohexyl]ethyl}amino)cyclopentane-1-carboxamide] | > 1 |
| CNC(=O)C1(NCC[C@H]2CC[C@@H](c3ncc(F)cc3C(F)(F)F)CC2)CCOCC1 [Example 50, 4-((2-((cis)-4-(5-fluoro-3-(trifluoromethyl)pyridin-2-yl)cyclohexyl)ethyl)amino)-N-methyltetrahydro-2H-pyran-4-carboxamide] | > 1 |
| CNC(=O)C1(NCC[C@H]2CC[C@H](c3ncc(F)cc3C(F)(F)F)CC2)CCOCC1 [Example 51, 4-((2-((trans)-4-(5-fluoro-3-(trifluoromethyl)pyridin-2-yl)cyclohexyl)ethyl)amino)-N-methyltetrahydro-2H-pyran-4-carboxamide] | > 1 |
| COCC1(NCCC2CCC(c3ncccc3Cl)CC2)CCOCC1 (stereo not shown) [Example 146, N-{2-[4-(3-Chloropyridin-2-yl)cyclohexyl]ethyl}-4-(methoxymethyl)oxan-4-amine] | > 1 |
| NC(=O)C1(NCCC2CCC(c3cccc(F)c3Cl)CC2)CCCC1 (stereo not shown) [Example 114, 1-({2-[4-(2-Chloro-3-fluorophenyl)cyclohexyl]ethyl}amino)cyclopentane-1-carboxamide] | > 1 |
| O=C1CC(NCC[C@H]2CC[C@H](c3ccc(F)cc3Cl)CC2)CCN1 (mixture of isomers) [Example 163, Racemic-4-({2-[(trans)-4-(2-Chloro-4-fluorophenyl)cyclohexyl]ethyl}amino)piperidin-2-one] | 0.001 to 0.01 |
| CC(=O)N1CCC(NCCC2CCC(c3ncc(F)cc3Cl)CC2)CC1 (stereo not shown) [Example 172, 1-[4-({2-[4-(3-Chloro-5-fluoropyridin-2-yl)cyclohexyl]ethyl}amino)piperidin-1-yl]ethan-1-one] | > 1 |
| Cc1ccncc1C1CCC(CCNC2(C(N)=O)CCCC2)CC1 (stereo not shown) [Example 118, 1-({2-[4-(4-Methylpyridin-3-yl)cyclohexyl]ethyl}amino)cyclopentane-1-carboxamide] | > 1 |
| CC1(NCCC2CCC(c3cccc(F)c3Cl)CC2)CCCC1 (stereo not shown) [Example 106, N-{2-[4-(2-Chloro-3-fluorophenyl)cyclohexyl]ethyl}-1-methylcyclopentan-1-amine] | > 1 |
| Cc1nccnc1[C@H]1CC[C@H](CCNC2CCOCC2)CC1 [Example 88, N-(2-((trans)-4-(3-methylpyrazin-2-yl)cyclohexyl)ethyl)tetrahydro-2H-pyran-4-amine] | > 1 |
| Cc1c(F)c(F)ccc1[C@H]1CC[C@H](CCNC2(C(N)=O)CCOCC2)CC1 [Example 49, 4-((2-((trans)-4-(3,4-difluoro-2-methylphenyl)cyclohexyl)ethyl)amino)tetrahydro-2H-pyran-4-carboxamide] | 0.1 to 1 |
| Cc1cccnc1C1CCC(CCNC2(C(N)=O)CCCC2)CC1 (stereo not shown) [Example 117, 1-({2-[4-(3-Methylpyridin-2-yl)cyclohexyl]ethyl}amino)cyclopentane-1-carboxamide] | > 1 |
| Clc1cccc(Cl)c1C1CCC(CCNC2CCOCC2)CC1 (single isomer, unassigned) [Example 8, N-(2-((cis)-4-(2,6-dichlorophenyl)cyclohexyl)ethyl)tetrahydro-2H-pyran-4-amine] | 0.001 to 0.01 |
| Fc1ccc([C@H]2CC[C@@H](CCNC3CCOCC3F)CC2)c(Cl)c1 (single isomer, unassigned) [Example 57, N-(2-((cis)-4-(2-chloro-4-fluorophenyl)cyclohexyl)ethyl)-3-fluorotetrahydro-2H-pyran-4-amine] | < 0.001 |
